Results from patent EP0211354A2, “Nucleosides and their use as antineoplastic agents” (MERRELL DOW PHARMACEUTICALS INC., priority 1985, dated 1987).
Marks after values point to notes of the source that are not given here.

Key:
[1] = tested on: L1210 mouse leukemia; assay: Antitumor activity against L1210 mouse leukemia (survival time); format: in vivo; conditions: for CURES: cured = surviving more than 30 days
Method: 1 × 10⁵ L1210 leukemia cells per animal were injected i.p. on day 0. Treatment with the drug was started on day 1. The compound was dissolved in sterile water and administered i.p. at the doses indicated from day 1 to day 9 once daily. Therapeutic effect of the compound was determined by determining the survival time of the treated group in comparison with control group as follows: [formula] *Animals surviving for more than 30 days are considered cured.

[2] = tested on: Hela Cells; assay: Growth of Hela cells in culture (cell count after 72 hours); format: cell-based
Method: Hela cells (1 × 10⁵/35 mm dish) were plated and incubated at 37°C in a CO₂ (5%) incubator. Media containing different dilutions of MDL 27,069 were added after overnight incubation. At the end of 72 hours, the cells were collected by trypsinization and counted using a coulter counter. *All cells were killed.

[3] = 0,01 mg/kg i.p. once daily day 1 to day 9
[4] = 0.25 mg/kg i.p. once daily day 1 to day 9
[5] = 0.5 mg/kg i.p. once daily day 1 to day 9
[6] = 1.0 mg/kg i.p. once daily day 1 to day 9

Nc1ccn([C@@H]2O[C@H](CO)[C@@H](O)C2(F)F)c(=O)n1 [MDL 27,069, 2'-desoxy-2',2'-difluorocytidine]
MEAN SURVIVAL TIME [1, 3]: 13.25 days | o/o T/C [1, 3]: 189 o/o | CURES [1, 3]: 0/5 | MEAN SURVIVAL TIME [1, 4]: 13.40 days | o/o T/C [1, 4]: 191 o/o | CURES [1, 4]: 0/5 | o/o T/C [1, 5]: 249 o/o | CURES [1, 5]: 0/5 | MEAN SURVIVAL TIME [1, 6]: 20.0 days | o/o T/C [1, 6]: 286 o/o | CURES [1, 6]: 2/5* | Cell Number ([2]; 0.00062 μg/ml): 2.0 X10^5 | Cell Number ([2]; 0.00125 μg/ml): 1.17 X10^5 | Cell Number ([2]; 0.0025 μg/ml): 0.51 X10^5 | Cell Number ([2]; 0.005 μg/ml): 0.36 X10^5 | Cell Number ([2]; 0.01 μg/ml, *All cells were killed): 0* X10^5 | inhibition at 0.00062 µg/mL ([2]; Homo sapiens, 0.00062 μg/ml): 48% | inhibition at 0.00125 µg/mL ([2]; Homo sapiens, 0.00125 μg/ml): 70% | inhibition at 0.0025 µg/mL ([2]; Homo sapiens, 0.0025 μg/ml): 87% | inhibition at 0.005 µg/mL ([2]; Homo sapiens, 0.005 μg/ml): 91% | inhibition at 0.01 µg/mL ([2]; Homo sapiens, 0.01 μg/ml): 100%
